Measured values from ChEMBL document CHEMBL3046141, “Partition coefficient determination of a series of isoindolines-2-substituted and its correlation with their antiproliferative activity on HeLa cells” (Med Chem Res, 2013).

Columns and labels:
[1] = n-octanol-water partition coefficient, log P of the compound by shake-flask method; assay type: physicochemical
HeLa [2] = test: Cytotoxicity against Homo sapiens (human) HeLa cells assessed as metabolic active cells after 24 hr by MTT assay; assay type: functional, cell-based
HeLa [3] = test: Cytotoxicity against Homo sapiens (human) HeLa cells assessed as cell viability after 24 hr by crystal violet staining; assay type: functional, cell-based

Row | SMILES | logP [1] | IC50 (HeLa [2]) [mM] | IC50 (HeLa [3]) [mM]
1 | COC(=O)CN1Cc2ccccc2C1 | -0.027 | 8.23 | 3.65
2 | COC(=O)[C@H](CC(C)C)N1Cc2ccccc2C1 | 0.065 | 2.56 | 3.16
3 | COC(=O)[C@H](c1ccccc1)N1Cc2ccccc2C1 | 1.35 | 8.25 | 5.32
4 | COC(=O)[C@H](Cc1c[nH]c2ccccc12)N1Cc2ccccc2C1 | 1.45 | 9.71 | 8.44
5 | O=C(O)CN1Cc2ccccc2C1 | -0.229 | 8.74 | 5.62
6 | CC(C)C[C@@H](C(=O)O)N1Cc2ccccc2C1 | 0.114 | 4.56 | 4.3
7 | O=C(O)[C@H](c1ccccc1)N1Cc2ccccc2C1 | -0.31 | 9.48 | 7.07
8 | O=C(O)[C@H](Cc1c[nH]c2ccccc12)N1Cc2ccccc2C1 | 0.347 | 7.6 | 8.82
